Patent US20060134213A1 (priority 2004, published 2006)

Assay: Clinical single-dose crossover study: relative bioavailability and dose proportionality from plasma ramipril and ramiprilat, tablets vs ALTACE capsules
Format: in vivo, human
[1] = doses increased from 2.5 to 20 mg

Method: The study followed a single-dose, open-label, four-period, four-treatment, crossover design and utilized a two-stage randomization process for 4 dose levels and 2 formulations. Each treatment was separated by a 2 week washout period. All treatments were administered following an overnight fast.
Thirty subjects were planned to be enrolled in the study to complete 24.
The ANOVA model included subject, period and formulation as fixed effects, and subject as a random effect. […] The ratios of LSM and CI were expressed as a percentage relative to the commercial capsules (ALTACE®).
Separately for the test (A, C, E, and G) and reference (B, D, F, and H) formulations, dose proportionality was evaluated. […] The ANOVA model included period as a fixed effect, intercept as a random effect, and in-transformed dose as a covariate.

SMILES: C[C@H](N[C@@H](CCc1ccccc1)C(=O)O)C(=O)N1[C@H](C(=O)O)C[C@@H]2CCC[C@@H]21 [ramiprilat]
- increase of AUC0-24 with dose (geometric means) [1]: proportional
- increase of Cmax with dose (geometric means) [1]: more than proportional increase
- increase of AUC0-t and AUC0-48 with dose (geometric means) (ramipril doses 2.5 to 20 mg): less than proportional increase
